Test results from PubChem BioAssay AID1963959 (Molecular Pharmacology Branch, DTP, NCI, 2024).

System: T-47D spheroids with HUVEC/MSC, viability
Assay: Anticancer human tumor T-47D cell line growth inhibition [PI3K];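 note: spheroids exposed to agents for seven days before reading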;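 for viability, T/C: percent of DMSO vehicle control luminescence so 100% = untreated growth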
Conditions: for viability, T/C: stronger effect = lower value
Excerpt: Combinatorial screen of targeted agents with the PI3K inhibitors inavolisib, alpelisib, duvelisib, and copanlisib in multi-cell type tumor spheroids
A high-throughput screen of multi-cell type tumor spheroids was designed to identify active combinations of targeted small molecules and PI3K pathway inhibitors. Complex spheroids include a stromal component modeled by human endothelial cells (HUVEC) and fibroblasts modeled by human mesenchymal stem cells (MSCs). The concentration ranges selected for each drug and investigational agent were based upon clinically achievable concentrations if the clinical Cmax of the agent was known.
Compounds. The drugs and investigational agents: inavolisib (NSC800729), alpelisib (NSC765974), duvelisib (NSC772469), copanlisib (NSC816437), ipatasertib (NSC767898), afuresertib (NSC778305), talazoparib (NSC767125), sapanisertib (NSC764658), selumetinib (NSC741078), tovorafenib (DAY101, NSC766906), vemurafenib (NSC761431), ravoxertinib (NSC781343), sotorasib (NSC818433), MRTX1133 (NSC 836407), abemaciclib (NSC 768073), palbociclib (NSC758247), venetoclax (NSC 766270), SY5609 (NSC837396), enzalutamide (NSC755605), and darolutamide (NSC825331), were obtained from the National Cancer Institute (NCI) Developmental Therapeutics Program Chemical Repository. The FDA-approved anticancer drug set is available from the NCI Developmental Therapeutics Program. […] The stock solutions were prepared in dimethyl sulfoxide (DMSO, Sigma-Aldrich, St. Louis, MO, cat. D2650) at 800-fold the tested concentration and stored at -70 degrees C prior to their use. All drugs and investigational agents were tested over a range starting from a high concentration at or near the clinical Cmax and decreasing in half-log increments. If the clinical Cmax for an agent had not been determined, the highest concentration tested was 10 microM.
Cell Culture. All cells were maintained in an incubator at 37 degrees C and 5% CO2 with 95% humidity. The PDC lines were cultured according to standard operating procedures established by the NCI PDMR (https://pdmr.cancer.gov/sops/default.htm). All PDCs were thawed and cultured in Matrigel-coated flasks prepared with a working solution of 1X Ham's F-12 nutrient mix, without supplementation (Invitrogen, Waltham, MA, cat. 11765054), 100 U/mL penicillin-streptomycin (Invitrogen, cat. 15140122), and 2.5% Matrigel (Corning Inc., Corning, NY, cat. 354248) for the first three passages. The 354836-022-R-J1-PDC, 475296-252-R-J1-PDC, and 997726-040-R-J2-PDC lines were cultured in 6A media, which includes advanced DMEM/F-12 (Thermo Fisher Scientific, cat. 12634028), 10 mM HEPES (Thermo Fisher Scientific, cat. 15630080), 1X GlutaMAX supplement (Thermo Fisher Scientific, cat. 35050061), 0.1 mg/mL primocin (InvivoGen, San Diego, CA, cat. ant-pm-2), 10% defined fetal bovine serum, heat inactivated (HyClone Laboratories Inc., Logan, UT, cat. SH30070.03HI), 50% L-WRN conditioned media (ATCC, cat. CRL-3276), 1.25 mM N-Acetyl-L-cysteine (Sigma-Aldrich, cat. A9165), 10 mM nicotinamide (Sigma-Aldrich, cat. N0636), 1X B-27 supplement (Thermo Fisher Scientific, cat. 17504044), 1X N-2 supplement (Thermo Fisher Scientific, cat. 17502048), and 10 microM Y-27632 dihydrochloride (Tocris Bioscience, Bristol, United Kingdom, cat. 1254). The 624824-186-R-J2-PDC line was cultured in 6C/Colon 1B media, which includes all 6A media components plus 50 ng/mL human EGF recombinant protein (Thermo Fisher Scientific, cat. PHG0311). […]

[1] = curve of first compound, second compound 0.0316 µM
[2] = curve of first compound, second compound 0.1 µM
[3] = curve of first compound, second compound 0.316 µM
[4] = curve of first compound, second compound 1 µM
[5] = second compound 0.0316 µM, first compound 0.0316 µM
[6] = second compound 0.0316 µM, first compound 0.1 µM
[7] = second compound 0.0316 µM, first compound 0.316 µM
[8] = second compound 0.0316 µM, first compound 1 µM
[9] = second compound 0.0316 µM, first compound 3.16 µM
[10] = second compound 0.0316 µM, first compound 10 µM
[11] = second compound 0.1 µM, first compound 0.0316 µM
[12] = second compound 0.1 µM, first compound 0.1 µM
[13] = second compound 0.1 µM, first compound 0.316 µM
[14] = second compound 0.1 µM, first compound 1 µM
[15] = second compound 0.1 µM, first compound 3.16 µM
[16] = second compound 0.1 µM, first compound 10 µM
[17] = second compound 0.316 µM, first compound 0.0316 µM
[18] = second compound 0.316 µM, first compound 0.1 µM
[19] = second compound 0.316 µM, first compound 0.316 µM
[20] = second compound 0.316 µM, first compound 1 µM
[21] = second compound 0.316 µM, first compound 3.16 µM
[22] = second compound 0.316 µM, first compound 10 µM
[23] = second compound 1 µM, first compound 0.0316 µM
[24] = second compound 1 µM, first compound 0.1 µM
[25] = second compound 1 µM, first compound 0.316 µM
[26] = second compound 1 µM, first compound 1 µM
[27] = second compound 1 µM, first compound 3.16 µM
[28] = second compound 1 µM, first compound 10 µM

C=CC(=O)N1CCN(c2nc(=O)n(-c3c(C)ccnc3C(C)C)c3nc(-c4c(O)cccc4F)c(F)cc23)C(C)C1 (centres undefined) + COc1c(OCCCN2CCOCC2)ccc2c3n(c(=NC(=O)c4cnc(N)nc4)nc12)CCN3
IC50 (curve of first compound, second compound 0.00316 µM): > 10 µM | IC50 (curve of first compound, second compound 0.01 µM): > 10 µM | IC50 [1]: > 10 µM | IC50 [2]: < 0.0316 µM | IC50 [3]: < 0.0316 µM | IC50 [4]: < 0.0316 µM | viability, T/C (second compound 0.00316 µM, first compound 0.0316 µM): 100% | viability, T/C (second compound 0.00316 µM, first compound 0.1 µM): 124% | viability, T/C (second compound 0.00316 µM, first compound 0.316 µM): 106% | viability, T/C (second compound 0.00316 µM, first compound 1 µM): 108% | viability, T/C (second compound 0.00316 µM, first compound 3.16 µM): 101% | viability, T/C (second compound 0.00316 µM, first compound 10 µM): 113% | viability, T/C (second compound 0.01 µM, first compound 0.0316 µM): 101% | viability, T/C (second compound 0.01 µM, first compound 0.1 µM): 91.6% | viability, T/C (second compound 0.01 µM, first compound 0.316 µM): 96.1% | viability, T/C (second compound 0.01 µM, first compound 1 µM): 91% | viability, T/C (second compound 0.01 µM, first compound 3.16 µM): 138% | viability, T/C (second compound 0.01 µM, first compound 10 µM): 104% | viability, T/C [5]: 84.5% | viability, T/C [6]: 67.6% | viability, T/C [7]: 74.6% | viability, T/C [8]: 109% | viability, T/C [9]: 95.6% | viability, T/C [10]: 90.6% | viability, T/C [11]: 46.2% | viability, T/C [12]: 51% | viability, T/C [13]: 41.1% | viability, T/C [14]: 45.1% | viability, T/C [15]: 48.3% | viability, T/C [16]: 53.1% | viability, T/C [17]: 21.3% | viability, T/C [18]: 18.4% | viability, T/C [19]: 18.2% | viability, T/C [20]: 21% | viability, T/C [21]: 20.9% | viability, T/C [22]: 35% | viability, T/C [23]: 6.05% | viability, T/C [24]: 6.58% | viability, T/C [25]: 5.84% | viability, T/C [26]: 9.25% | viability, T/C [27]: 11.6% | viability, T/C [28]: 19.2%

Cn1ncnc1[C@H]1c2n[nH]c(=O)c3cc(F)cc(c23)N[C@@H]1c1ccc(F)cc1
viability, T/C (compound 0.000316 µM): 103% [middle of 4 runs] | viability, T/C (compound 0.001 µM): 98.3% [middle of 4 runs] | viability, T/C (compound 0.01 µM): 109% [middle of 4 runs] | viability, T/C (compound 0.0316 µM): 101% [middle of 4 runs] | IC50 (curve of compound): > 0.1 µM

CC1(C)CCC(Nc2ncc(C(F)(F)F)c(-c3c[nH]c4c(P(C)(C)=O)c(C#N)ccc34)n2)CN1 (centres undefined) + Cc1nc(NC(=O)N2CCCC2C(N)=O)sc1-c1ccnc(C(C)(C)C(F)(F)F)c1
IC50 [1]: 8.08 µM | IC50 [2]: > 10 µM | IC50 [3]: 4.92 µM | IC50 [4]: 3.39 µM | IC50 (curve of first compound, second compound 3.16 µM): < 0.0316 µM | IC50 (curve of first compound, second compound 10 µM): < 0.0316 µM | viability, T/C [5]: 73.6% | viability, T/C [6]: 64.5% | viability, T/C [7]: 73.7% | viability, T/C [8]: 72.4% | viability, T/C [9]: 72.2% | viability, T/C [10]: 45.1% | viability, T/C [11]: 68.7% | viability, T/C [12]: 65.8% | viability, T/C [13]: 65.6% | viability, T/C [14]: 64.6% | viability, T/C [15]: 70.9% | viability, T/C [16]: 42.9% | viability, T/C [17]: 67% | viability, T/C [18]: 57.7% | viability, T/C [19]: 55% | viability, T/C [20]: 55.7% | viability, T/C [21]: 59.2% | viability, T/C [22]: 35.9% | viability, T/C [23]: 56.7% | viability, T/C [24]: 58.1% | viability, T/C [25]: 45.2% | viability, T/C [26]: 44.2% | viability, T/C [27]: 54.4% | viability, T/C [28]: 22.7% | viability, T/C (second compound 3.16 µM, first compound 0.0316 µM): 47.3% | viability, T/C (second compound 3.16 µM, first compound 0.1 µM): 41.3% | viability, T/C (second compound 3.16 µM, first compound 0.316 µM): 42.3% | viability, T/C (second compound 3.16 µM, first compound 1 µM): 38.6% | viability, T/C (second compound 3.16 µM, first compound 3.16 µM): 40.1% | viability, T/C (second compound 3.16 µM, first compound 10 µM): 8.96% | viability, T/C (second compound 10 µM, first compound 0.0316 µM): 30.3% | viability, T/C (second compound 10 µM, first compound 0.1 µM): 29.4% | viability, T/C (second compound 10 µM, first compound 0.316 µM): 26.6% | viability, T/C (second compound 10 µM, first compound 1 µM): 27.5% | viability, T/C (second compound 10 µM, first compound 3.16 µM): 20.8% | viability, T/C (second compound 10 µM, first compound 10 µM): 3.07%
